In patent US5126258A (priority 1988, dated 1992):
Like-named read-outs stand apart in the source and are kept apart here.

Columns and labels:
[1] = target: monoclonal receptor P3 6D4; test: Stoichiometric transacylation reaction of monoclonal receptor P3 6D4 with coumarin ester Compound 5 (fluorescence) and its inhibition/inactivation; assay type: biochemical, mouse
Method: A Perkin-Elmer LS-5 fluorescence spectrometer was operated at a fixed wavelength, using 355 nanometers (nm) for excitation and measuring the emission at 455 nm. A stock solution of the coumarin ester 5 was prepared in dioxane and was diluted to the desired concentrations in Tris-HCl (50 mM, pH 7) or sodium phosphate (50 mM, pH 4-9).
Reactions were run at 23 degrees C and were initiated by the addition of an aliquot of antibody solution (1 mg/ml) to substrate solutions to provide a final protein concentration of 100 nM. Final fluorescence values were determined by hydrolysis of the substrate with pig liver esterase. The observed reaction rate was corrected for spontaneous hydrolysis. Reaction kinetics were studied by measuring initial rates under pseudo-first order conditions. Active protein concentration was extrapolated from fluorescence values at the end of the reaction. The kinetic parameters were obtained by fitting the data to a hyperbolic curve and from double reciprocal plots. Inhibition constants were determined from the Lineweaver-Burk plot data with at least five inhibitor concentrations. All the data were studied by a least squares analysis.
Antibody preparations were inactivated without introducing fluorescent products by the addition of the activated ester (Compound 8) in dioxane to a solution of the IgG (5 mg/ml) in Tris-HCl (50 mM, pH 6.5) at a ratio of 5 moles of the ester (Compound 8) per mole IgG.
Protein modification was performed in an analogous manner, by the addition of a dioxane solution of the reagent at a known concentration to the antibody. The solution was incubated for 30 minutes before filtration through Sephadex G-25. The activity remaining was compared to control samples. Aliquots of IgG (5 mg/ml) inactivated with the ester (Compound 8) were diluted with four volumes of phosphate buffer (50 mM, pH 4-9, at intervals of 1 pH unit). Any pH change was recorded, and the sample was stored at 4 degrees C for 24 hours.
Initially, the ester was used at a concentration that was about four-fold greater than that of the protein, and the mixture was incubated at pH 7.2 for 10 minutes. Any change in fluorescence above background was noted.
The termination of the reaction is noted by the return of the rate of fluorescence increase to the background level.

[2] = target: monoclonal antibody P3 6D4; test: Kinetics and inhibition of catalytic ester hydrolysis by monoclonal antibody P3 6D4, spectrophotometric at 245 nm; assay type: biochemical, mouse; conditions: substrate Compound 7; read-out: inhibition constant ki, catalytic reaction with Compound 7
Method: FIG. 4 illustrates a Lineweaver-Burk plot for the hydrolysis of Compound 7 by anti-Compound 4 monoclonal antibody from hybridoma P3 6D4. Velocities were determined spectrophotometrically by measuring initial rates during the first linear portion of the reaction as described with reference to Table 2. The substrate concentrations were corrected for amounts consumed during initial equilibration. ( ) No inhibitor present. ( ) Inhibited by 50 nM phosphonate (Compound 3). ( ) Inhibited by 100 nM phosphonate (Compound 3).
In particular, an exemplary monoclonal receptor was produced by the standard hybridoma technology of Kohler et al., Nature, 256, 495 (1975). Specifically, female 129G1X^+ mice were immunized by intraperitoneal injection with an inoculum of 100 micrograms of conjugate (e.g., Compound 4i bound to KLH) in 300 microliters of a 1:1 mixture of phosphate buffered saline (PBS) pH 7.4 and complete Freund's adjuvant. Two weeks later, the mice were again injected in a like manner with 50 micrograms of the foregoing conjugate in 300 microliters of a 1:1 mixture of PBS (pH 7.4) and 10 mg/ml alum. After an additional eight weeks, the mice were immunized intravenously with 50 micrograms of the conjugate in 200 microliters of PBS (pH 7.4). The spleens were removed from the mice 4 days later, and the spleen cells were fused to myeloma cells.
Reaction kinetics were measured spectrophotometrically by following the absorption change at 245 nanometers. […] Kinetic parameters obtained with these substrates are shown in Table 2 along with the inhibition constants obtained with phosphonate (Compound 3). Under these conditions, the acceleration above the background rate is about 960-fold for Compound 7 and about 200-fold for Compound 8 (corrected for the background hydrolysis rate).
*The kinetic parameters shown in Table 2 are for the hydrolysis of esters
(Compounds 7 and 8) by monoclonal antibody P3 6D4. A PerkinElmer lambda 4
spectrophotometer, equipped with thermostatted cell holder, was used to
measure absorption changes at 245 nm. Cells containing the substrate at
concentrations of 0.5 to 50 micromolar in phosphate buffer (50 mM, pH 8.0
were preequilibrated at 25 degrees C. The concentration of active IgG in
stock solution was found by reacting with the coumarin ester (Compound 5)
and measuring the yield of hydroxycoumarin by fluorescence. The kinetic
run was initiated by addition of an aliquot of the antibody stock solutio
(in 50 mM phosphate buffer, pH 8.0) calculated to give 100 nM IgG. The
mixture was allowed to equilibrate for 2 to 3 minutes and the rate was
then measured during the subsequent 10 minutes. The absorption change for
complete hydrolysis was determined by treatment with esterase. Kinetic
parameters were obtained from L ineweaverBurk plots (see FIG. 4).
Inhibition constants were determined from a plot of the slopes with at
least four inhibitor concentrations of Compound 3. The data were analyzed

[3] = substrate Compound 5, estimated, read-out: inhibition constant, stoichiometric reaction with Compound 5

CC(=O)Nc1ccc(OP(=O)(O)Cc2ccc(NC(=O)C(F)(F)F)cc2)cc1 [Compound 1i]
Ki [1, 3]: 100 nM | Ki [2]: 800 nM

CC(=O)Nc1ccc(OP(=O)(O)Cc2ccc(NC(=O)C(F)(F)F)cc2)c(CNC(=O)c2cccc(C(=O)O)n2)c1 [Compound 3i]
Ki [1, 3]: 35 nM | Ki ([1]; summary, kinetic parameters at low pH values, read-out: Ki (inhibition of antibody esterolysis)): 35 nM | Ki [2]: 160 nM
